Consider ten molecules from PubChem BioAssay (NCI).

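48-hour exposure; five concentrations; linearly interpolated endpoints. At the TGI there is no net growth.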 Where only a bound is given, the exact number is not on record here.

Some test systems named below: DLD-1 colon; P388 leukemia; M19-MEL melanoma; P388/ADR leukemia; DMS 273 small cell lung; DMS 114 small cell lung; SN12K1 renal; XF 498 CNS; HOP-18 NSCLC; LXFL 529 NSCLC; RXF-631 renal.
What all share (assay): NCI tumour cell line growth inhibition, 48 h

In the case of `CCOC(=O)CNC(=O)NC12CC3CC(CC(C3)C1)C2`, the TGI was over 87.2 µM in the experiment on DLD-1 colon; 430 µM with P388 leukemia; 369 µM in the experiment with M19-MEL melanoma; over 550 µM with P388/ADR leukemia; over 550 µM in the experiment with DMS 273 small cell lung; over 511 µM in the experiment with DMS 114 small cell lung. The TGI with SN12K1 renal was determined as 503 µM; in the experiment on XF 498 CNS, 246 µM; with HOP-18 NSCLC, 537 µM.
On to `CN(C)CCNC(=O)Cc1ccccc1Nc1c(Cl)cccc1Cl`, for which the TGI worked out at 27.3 µM with DLD-1 colon; 28.5 µM in the experiment with M19-MEL melanoma; 30.5 µM with DMS 273 small cell lung; 33.1 µM in the experiment with DMS 114 small cell lung; 32.5 µM with LXFL 529 NSCLC.
Take `CCCN(CCC)c1c([N+](=O)[O-])cc(C(=O)N(CC)CC)cc1[N+](=O)[O-]`: the TGI in the experiment with DLD-1 colon was over 100 µM; with M19-MEL melanoma it was 47.8 µM; in the experiment with DMS 273 small cell lung, 43.7 µM; with DMS 114 small cell lung, 42.8 µM; with LXFL 529 NSCLC, 63.7 µM.
On to `COc1cc(C2c3cc4c(cc3[C@@H](Nc3ccccc3)C3COC(=O)[C@H]23)OCO4)cc(OC)c1O` (some centres not stated), for which the TGI in the experiment on DLD-1 colon was 6.64 µM; in the experiment on P388 leukemia, 2.35 µM; in the experiment with M19-MEL melanoma it was 16.6 µM; in the experiment on P388/ADR leukemia, 4.59 µM; with DMS 273 small cell lung, 3.35 µM; with DMS 114 small cell lung, 3.42 µM. Also, the TGI amounted to 8.65 µM in the experiment with SN12K1 renal, 7.84 µM in the experiment on XF 498 CNS and 22.6 µM in the experiment on HOP-18 NSCLC.
`CN1Cc2c(nc(-c3ccccc3)c[n+]2[O-])N(C)C1`: the TGI in the experiment with DLD-1 colon, in the experiment with M19-MEL melanoma, in the experiment with DMS 273 small cell lung, in the experiment with DMS 114 small cell lung, in the experiment with RXF-631 renal and in the experiment on LXFL 529 NSCLC was over 100 µM throughout. For the same molecule, the TGI in the experiment on XF 498 CNS and in the experiment on HOP-18 NSCLC was over 100 µM throughout.
For `O=C(NCCCl)O/N=C/c1cccnc1`, the TGI in the experiment on DLD-1 colon, in the experiment with M19-MEL melanoma, in the experiment on P388/ADR leukemia, in the experiment with DMS 273 small cell lung, with DMS 114 small cell lung and in the experiment on SN12K1 renal was over 100 µM each time. The TGI with XF 498 CNS and with HOP-18 NSCLC was over 100 µM each time.
In the case of `Nc1c(S(=O)(=O)c2ccc(Cl)cc2)c2nc3ccccc3nc2n2ccnc12`, the TGI with DLD-1 colon, in the experiment with M19-MEL melanoma, in the experiment with DMS 273 small cell lung, in the experiment on DMS 114 small cell lung, in the experiment with LXFL 529 NSCLC and in the experiment with XF 498 CNS was over 100 µM in each case. For the same molecule, the TGI in the experiment on HOP-18 NSCLC turned out to be 79.3 µM.
For `COc1ccc(NC(=O)CSc2nnc(-c3ccc(NC(C)=O)cc3)o2)cc1`, the TGI with DLD-1 colon came out at 41 µM; in the experiment on M19-MEL melanoma it was 55.7 µM; in the experiment with DMS 273 small cell lung, 33.7 µM; with DMS 114 small cell lung it was 19.3 µM; in the experiment with LXFL 529 NSCLC it was 26.7 µM; in the experiment with HOP-18 NSCLC, 34.9 µM.
For `O=C(NN1C(=O)CS(=O)(=O)C1c1ccc(C(F)(F)F)cc1)c1ccncc1` (configuration not stated), the TGI with DLD-1 colon, in the experiment with DMS 273 small cell lung, in the experiment with DMS 114 small cell lung, with LXFL 529 NSCLC, in the experiment with XF 498 CNS and in the experiment on HOP-18 NSCLC was over 100 µM throughout.
Consider `O=C1NC(O)CCN1C1OC(CO)C(O)C1O` (configuration not stated), for which the TGI in the experiment with DLD-1 colon, in the experiment with P388 leukemia, in the experiment with M19-MEL melanoma, in the experiment with P388/ADR leukemia, in the experiment on DMS 273 small cell lung and in the experiment on DMS 114 small cell lung was over 250 µM throughout. Moreover, the TGI in the experiment with SN12K1 renal, with XF 498 CNS and in the experiment on HOP-18 NSCLC was over 250 µM throughout.
